According to publication PMC12396409, “Screening and hit evaluation of a microbial metabolite library against the pathogenic Plasmodium falciparum and Toxoplasma gondii parasites” (International Journal for Parasitology: Drugs and Drug …, 2025):
Where a name gives a salt, the structure may show the parent alone. Read-outs that look alike come from different tables or passages of the source.

How the values were obtained:
[1] = test system: P. falciparum 3D7 parasites; experiment: P. falciparum growth inhibition assay, 2-cycle (120 h treatment), delayed-death screen and dose-response; assay type: cell-based, Plasmodium falciparum; settings: for activity at 2 µg/mL: Plasmodium falciparum
[2] = test system: P. falciparum 3D7 parasites; experiment: P. falciparum growth inhibition assay, 1-cycle (72 h treatment), SYBR DNA staining (library screen at 2 μg/mL and dose-response); assay type: cell-based, Plasmodium falciparum; settings: for activity at 2 µg/mL: Plasmodium falciparum
[3] = test system: T. gondii RH strain (RH-Tub-eYFP) tachyzoites; experiment: microbe, parasite or virus in culture; assay type: cell-based, Toxoplasma gondii; settings: 72 h; for percent parasite growth at 2 µg/mL: Toxoplasma gondii
[4] = 3D7, library screen at 2 μg/mL, 120 h, % growth, replicate 1, read-out: Pf_120h_%Growth_Rep1
[5] = 3D7, library screen at 2 μg/mL, 120 h, % growth, replicate 2, read-out: Pf_120h_%Growth_Rep2
[6] = 3D7, library screen at 2 μg/mL, 72 h, % growth, replicate 1, read-out: Pf_72h_%Growth_Rep1
[7] = 3D7, library screen at 2 μg/mL, 72 h, % growth, replicate 2, read-out: Pf_72h_%Growth_Rep2
[8] = library screen at 2 μg/mL, % growth, replicate 1, read-out: Tg_72h_%Growth_Rep1
[9] = library screen at 2 μg/mL, % growth, replicate 2, read-out: Tg_72h_%Growth_Rep2
[10] = library screen at 2 μg/mL, 120 h, % growth, replicate 1
[11] = library screen at 2 μg/mL, 120 h, % growth, replicate 2
[12] = library screen at 2 μg/mL, 72 h, % growth, replicate 1
[13] = library screen at 2 μg/mL, 72 h, % growth, replicate 2
[14] = library screen at 2 μg/mL, % growth, replicate 1
[15] = library screen at 2 μg/mL, % growth, replicate 2
[16] = P. falciparum, 120 h, parasite screen 2 μg/mL, % growth, replicate 1
[17] = P. falciparum, 120 h, parasite screen 2 μg/mL, % growth, replicate 2
[18] = P. falciparum, 72 h, parasite screen 2 μg/mL, % growth, replicate 1
[19] = P. falciparum, 72 h, parasite screen 2 μg/mL, % growth, replicate 2
[20] = T. gondii, parasite screen 2 μg/mL, % growth, replicate 1
[21] = T. gondii, parasite screen 2 μg/mL, % growth, replicate 2
[22] = P. falciparum, 120 h, screen at 2 μg/mL, replicate 1
[23] = P. falciparum, 120 h, screen at 2 μg/mL, replicate 2
[24] = P. falciparum, 72 h, screen at 2 μg/mL, replicate 1
[25] = P. falciparum, 72 h, screen at 2 μg/mL, replicate 2
[26] = T. gondii, screen at 2 μg/mL, replicate 1
[27] = T. gondii, screen at 2 μg/mL, replicate 2

Structure (SMILES): C[C@@H]1C[C@@H]([C@H](O)CC2CC(=O)NC(=O)C2)C(=O)[C@@H](C)C1 [cycloheximide, reference compound]
- activity at 2 µg/mL ([1]; 3D7, P. falciparum, 120 h, screen at 2 μg/mL, replicate 1, read-out: Pf_120h_%Growth_Rep1): 1.73%
- activity at 2 µg/mL ([1]; 3D7, P. falciparum, 120 h, screen at 2 μg/mL, replicate 2, read-out: Pf_120h_%Growth_Rep2): 0.69%
- activity in the screen against P. falciparum ([2]; 2 μg/mL, 72 h, active = ≥80 % growth inhibition): active
- activity at 2 µg/mL ([2]; 3D7, P. falciparum, 72 h, screen at 2 μg/mL, replicate 1, read-out: Pf_72h_%Growth_Rep1): 1.07%
- activity at 2 µg/mL ([2]; 3D7, P. falciparum, 72 h, screen at 2 μg/mL, replicate 2, read-out: Pf_72h_%Growth_Rep2): 4.34%
- percent parasite growth at 2 µg/mL ([3]; T. gondii, screen at 2 μg/mL, replicate 1, read-out: Tg_72h_%Growth_Rep1): 7.84%
- percent parasite growth at 2 µg/mL ([3]; T. gondii, screen at 2 μg/mL, replicate 2, read-out: Tg_72h_%Growth_Rep2): 1.95%

Structure (SMILES): CC(C)C[C@H](NC(=O)[C@@H](O)[C@H](N)Cc1ccccc1)C(=O)O [Bestatin]
- activity at 2 µg/mL [1, 4]: 3.72%
- activity at 2 µg/mL [1, 5]: 8.03%
- activity at 2 µg/mL [2, 6]: 10.9%
- activity at 2 µg/mL [2, 7]: 3.89%
- percent parasite growth at 2 µg/mL [3, 8]: 89.8%
- percent parasite growth at 2 µg/mL [3, 9]: 102%

Structure (SMILES): CCCCCC[C@H]1C(=O)O[C@H](C)[C@H](NC(=O)c2cccc(NC=O)c2O)C(=O)O[C@@H](C)[C@@H]1OC(=O)CC(C)C [Antimycin A1]
- Pf_120h_%Growth_Rep1 [1, 10]: -1.25%
- Pf_120h_%Growth_Rep2 [1, 11]: 6.08%
- Pf_72h_%Growth_Rep1 [2, 12]: 7.57%
- Pf_72h_%Growth_Rep2 [2, 13]: 13.46%
- Tg_72h_%Growth_Rep1 [3, 14]: 5.65%
- Tg_72h_%Growth_Rep2 [3, 15]: 4.89%

Structure (SMILES): CO[C@H]1C[C@@H]2CC[C@@H](C)[C@@](O)(O2)C(=O)C(=O)N2CCCC[C@H]2C(=O)O[C@H]([C@H](C)C[C@@H]2CC[C@@H](OCCO)[C@H](OC)C2)CC(=O)[C@H](C)/C=C(\C)[C@@H](O)[C@@H](OC)C(=O)[C@H](C)C[C@H](C)/C=C/C=C/C=C/1C [Everolimus]
- activity at 2 µg/mL [1, 4]: 72.3%
- activity at 2 µg/mL [1, 5]: 69.3%
- activity at 2 µg/mL [2, 6]: 71.5%
- activity at 2 µg/mL [2, 7]: 67.8%
- percent parasite growth at 2 µg/mL [3, 8]: 40.6%
- percent parasite growth at 2 µg/mL [3, 9]: 79.1%

Structure (SMILES): CC[C@@H](O)[C@@](C)(O)[C@@H]1OC(=O)[C@H](C)[C@@H](O[C@H]2C[C@@](C)(OC)[C@@H](O)[C@H](C)O2)[C@H](C)[C@@H](O[C@@H]2O[C@H](C)C[C@H](N(C)C)[C@H]2O)[C@@]2(C)CC(C)=C(O2)[C@@H]1C [Pseudoerythromycin A enol ether]
- Pf_120h_%Growth_Rep1 [1, 16]: 72.95%
- Pf_120h_%Growth_Rep2 [1, 17]: 110.79%
- Pf_72h_%Growth_Rep1 [2, 18]: 72.76%
- Pf_72h_%Growth_Rep2 [2, 19]: 82.73%
- Tg_72h_%Growth_Rep1 [3, 20]: 127.77%
- Tg_72h_%Growth_Rep2 [3, 21]: 87.62%

Structure (SMILES): COc1cc(OC)c2c(OC)c3ccoc3nc2c1OC [Trimethoxydictamnine, 5,7,8-]
- Pf_120h_%Growth_Rep1 [1, 22]: 91.88%
- Pf_120h_%Growth_Rep2 [1, 23]: 81.51%
- Pf_72h_%Growth_Rep1 [2, 24]: 85.08%
- Pf_72h_%Growth_Rep2 [2, 25]: 101.79%
- Tg_72h_%Growth_Rep1 [3, 26]: 134.56%
- Tg_72h_%Growth_Rep2 [3, 27]: 84.32%

Structure (SMILES): C[C@@H]1Cc2c(Cl)cc(C(=O)N[C@@H](Cc3ccccc3)C(=O)O)c(O)c2C(=O)O1 [BIA-O1195]
- Pf_120h_%Growth_Rep1 ([1]; P. falciparum 3D7, 120 h, parasite screen at 2 μg/mL, % growth, replicate 1): 103.82%
- Pf_120h_%Growth_Rep2 ([1]; P. falciparum 3D7, 120 h, parasite screen at 2 μg/mL, % growth, replicate 2): 136.40%
- Pf_72h_%Growth_Rep1 ([2]; P. falciparum 3D7, 72 h, parasite screen at 2 μg/mL, % growth, replicate 1): 84.32%
- Pf_72h_%Growth_Rep2 ([2]; P. falciparum 3D7, 72 h, parasite screen at 2 μg/mL, % growth, replicate 2): 95.25%
- Tg_72h_%Growth_Rep1 ([3]; T. gondii, parasite screen at 2 μg/mL, % growth, replicate 1): 120.41%
- Tg_72h_%Growth_Rep2 ([3]; T. gondii, parasite screen at 2 μg/mL, % growth, replicate 2): 95.09%

Structure (SMILES): Oc1cccc2nc3ccccc3nc12 [BIA-H1520]
- Pf_120h_%Growth_Rep1 ([1]; P. falciparum 3D7, 120 h, library screen at 2 μg/mL, % growth, replicate 1): 70.83%
- Pf_120h_%Growth_Rep2 ([1]; P. falciparum 3D7, 120 h, library screen at 2 μg/mL, % growth, replicate 2): 82.39%
- Pf_72h_%Growth_Rep1 ([2]; P. falciparum 3D7, 72 h, library screen at 2 μg/mL, % growth, replicate 1): 84.93%
- Pf_72h_%Growth_Rep2 ([2]; P. falciparum 3D7, 72 h, library screen at 2 μg/mL, % growth, replicate 2): 98.32%
- Tg_72h_%Growth_Rep1 ([3]; T. gondii RH, library screen at 2 μg/mL, % growth, replicate 1): 90.90%
- Tg_72h_%Growth_Rep2 ([3]; T. gondii RH, library screen at 2 μg/mL, % growth, replicate 2): 78.11%

Structure (SMILES): C=C1CC[C@H](O)C(C)(C)[C@@H]1CC/C(C)=C/CC/C(C)=C/Cc1c(O)cc(C)oc1=O [Sartorypyrone D]
- Pf_120h_%Growth_Rep1 [1, 16]: 72.77%
- Pf_120h_%Growth_Rep2 [1, 17]: 7.76%
- Pf_72h_%Growth_Rep1 [2, 18]: 81.94%
- Pf_72h_%Growth_Rep2 [2, 19]: 66.06%
- Tg_72h_%Growth_Rep1 [3, 20]: 121.13%
- Tg_72h_%Growth_Rep2 [3, 21]: 88.47%

Structure (SMILES): CC(=O)N[C@H](COC(C)=O)[C@H](O)c1ccc([N+](=O)[O-])cc1 [Corynecin IV]
- Pf_120h_%Growth_Rep1 [1, 22]: 80.18%
- Pf_120h_%Growth_Rep2 [1, 23]: 96.02%
- Pf_72h_%Growth_Rep1 [2, 24]: 87.87%
- Pf_72h_%Growth_Rep2 [2, 25]: 87.15%
- Tg_72h_%Growth_Rep1 [3, 26]: 146.78%
- Tg_72h_%Growth_Rep2 [3, 27]: 106.28%

Structure (SMILES): C[C@@H]1C=C2C(=O)O[C@@H]3CC[C@H](C1)[C@]23O [Galiellalactone]
- Pf_120h_%Growth_Rep1 [1, 10]: 91.95%
- Pf_120h_%Growth_Rep2 [1, 11]: 97.41%
- Pf_72h_%Growth_Rep1 [2, 12]: 88.40%
- Pf_72h_%Growth_Rep2 [2, 13]: 106.75%
- Tg_72h_%Growth_Rep1 [3, 14]: 132.28%
- Tg_72h_%Growth_Rep2 [3, 15]: 99.14%

Structure (SMILES): CC[C@@H](C(=O)[C@@H](C)[C@@H](O)[C@H](C)[C@@H]1O[C@@H]([C@@H](CC)C(=O)O)CC[C@@H]1C)[C@H]1O[C@]2(C=C[C@@H](O)[C@]3(CC[C@@](C)([C@H]4CC[C@](O)(CC)[C@H](C)O4)O3)O2)[C@H](C)C[C@@H]1C [Salinomycin]
- Pf_120h_%Growth_Rep2 [1, 17]: 1.02%
- activity at 2 µg/mL ([1]; 3D7, 120 h, P. falciparum, 120 h, parasite screen 2 μg/mL, % growth, replicate 1, read-out: Pf_120h_%Growth_Rep1): 13.6%
- Pf_72h_%Growth_Rep2 [2, 19]: -1.92%
- activity at 2 µg/mL ([2]; 3D7, 72 h, P. falciparum, 72 h, parasite screen 2 μg/mL, % growth, replicate 1, read-out: Pf_72h_%Growth_Rep1): 3.76%
- Tg_72h_%Growth_Rep2 [3, 21]: 0.21%
- percent parasite growth at 2 µg/mL ([3]; T. gondii, parasite screen 2 μg/mL, % growth, replicate 1, read-out: Tg_72h_%Growth_Rep1): 2.46%

Structure (SMILES): CC[C@H]1OC(=O)[C@H](C)[C@@H](O[C@H]2C[C@@](C)(OC)[C@@H](O)[C@H](C)O2)[C@H](C)[C@@H](O[C@@H]2O[C@H](C)C[C@H](N(C)C)[C@H]2O)[C@](C)(O)C[C@@H](C)[C@@H]2N[C@@H](COCCOC)O[C@H]([C@H]2C)[C@]1(C)O [Dirithromycin]
- activity at 2 µg/mL ([1]; 3D7, 120 h, library screen at 2 μg/mL, 120 h, % growth, replicate 1, read-out: Pf_120h_%Growth_Rep1): 62.1%
- activity at 2 µg/mL ([1]; 3D7, 120 h, library screen at 2 μg/mL, 120 h, % growth, replicate 2, read-out: Pf_120h_%Growth_Rep2): 48.4%
- activity at 2 µg/mL ([2]; 3D7, 72 h, library screen at 2 μg/mL, 72 h, % growth, replicate 1, read-out: Pf_72h_%Growth_Rep1): 80.4%
- activity at 2 µg/mL ([2]; 3D7, 72 h, library screen at 2 μg/mL, 72 h, % growth, replicate 2, read-out: Pf_72h_%Growth_Rep2): 73.2%
- percent parasite growth at 2 µg/mL [3, 8]: 67.5%
- percent parasite growth at 2 µg/mL [3, 9]: 74.8%

Structure (SMILES): Cc1c2c(c(O)c3c(O)cccc13)C(=O)[C@]1(O)C(=O)C(C(N)=O)=C(O)[C@@H](N(C)C)[C@@H]1C2 [Anhydrotetracycline hydrochloride]
- activity at 2 µg/mL [1, 4]: 52.2%
- activity at 2 µg/mL [1, 5]: 57%
- activity at 2 µg/mL [2, 6]: 77.2%
- activity at 2 µg/mL [2, 7]: 74%
- percent parasite growth at 2 µg/mL [3, 8]: 89.6%
- percent parasite growth at 2 µg/mL [3, 9]: 88.3%
